Source: patent US4537895A, “Isoquinoline derivatives” (EGYT Gyogyszervegyeszeti Gyar, priority 1982, dated 1985)
Where “and” joins values, the source holds several entries; their conditions need not be identical. Equal values may be shown once. Read-outs that look alike come from different tables or passages of the source.

What was measured:
[1] = test system: blood pressure and nictitating membrane; test: Test 7: blood pressure and nictitating membrane effect; type: in vivo; conditions: Felis catus, iv, cats; ">" = inactive in the given dose; read-out: Lowest i.v. dose which still increases the blood pressure and nictitating membrane effect (Test 7)
Procedure: (§1) Tests 7-10 are carried out in cats and rats, the doses are expressed in micromole/kg.
(§2) Tests 2, 8, 9 and 10 are suitable for the evaluation of the dopaminerg stimulating effect of the test compounds (potential anti-parkinson agent). Tests 4, 5, 6 and 7 give information about the catecholamine-uptake inhibiting effect (potential antidepressive activity).

[2] = Acute toxicity, s.c., LD50; parameters: species or system mice; conditions: mouse, in vivo, sc, mice, 96 hour observation
Procedure: (§3) The acute toxicity data are determined in mice. Tests 2-6 are also carried out in mice. The doses are expressed in micromole/kg. The therapeutical index (TI) is the LD/ED quotient.

[3] = test system: catalepsy induced by tetrabenazine; test: Test 4: inhibition of tetrabenazine-induced catalepsy; type: in vivo; conditions: for TI (Test 4), LD/ED quotient: LD50 / ED of Test 4; for ED50: Mus musculus, sc, read-out: ED, s.c. dose which inhibits the catalepsy induced by tetrabenazine in 50% of the mice (Test 4)
Procedure: (§4) 4. S.c. dose which inhibits the catalepsy induced by a 110 umole/kg dose of tetrabenazine, in 50% of the mice.
as §3, §2

[4] = test system: decrease of the rectal temperature caused by reserpine; test: Test 6: reserpine-induced decrease of rectal temperature; type: in vivo; conditions: for TI (Test 6), LD/ED quotient: LD50 / ED of Test 6; for minimal effective dose: Mus musculus, sc, read-out: ED, lowest s.c. dose which still hinders the decrease of the rectal temperature caused by reserpine (Test 6)
Procedure: 6. The lowest s.c. dose which still hinders the decrease of the rectal temperature caused by the administration of a 1,6 umole/kg dose of reserpine.
as §3, §2

[5] = test system: catalepsy induced by Haloperidol; test: Test 2: inhibition of haloperidol-induced catalepsy; type: in vivo; conditions: for TI (Test 2), LD/ED quotient: LD50 / ED of Test 2; for ED50: Mus musculus, sc, read-out: ED, s.c. dose which inhibits the catalepsy induced by Haloperidol in 50% of the mice (Test 2)
Procedure: (§5) 2. S.c. dose which inhibits the catalepsy induced by a 13 umole/kg dose of Haloperidol, in 50% of the mice.
as §3, §2

spontaneous motility = test: Test 3: spontaneous motility; type: in vivo; conditions: for TI (Test 3), LD/ED quotient: LD50 / ED of Test 3; for minimal effective dose: Mus musculus, ip
Procedure: 3. Lowest i.p. dose which still increases or decreases the spontaneous motility of the mice.
as §3
In Test 3 "+=motility increase" and "-=motility decrease."

stereotypy = test: Test 8: induction of stereotypy; type: in vivo; conditions: Rattus norvegicus, sc, rats; ">" = inactive in the given dose; read-out: Lowest s.c. dose which still induces stereotypy (Test 8)
Procedure: 8. The lowest s.c. dose which still induces stereotypy, in rats.
as §1, §2

[6] = test system: ptosis induced by tetrabenazine; test: Test 5: inhibition of tetrabenazine-induced ptosis; type: in vivo; conditions: for TI (Test 5), LD/ED quotient: LD50 / ED of Test 5; for ED50: Mus musculus, sc, read-out: ED, s.c. dose which inhibits the ptosis induced by tetrabenazine in 50% of the mice (Test 5)
Procedure: 5. S.c. dose which inhibits the ptosis induced by a dose of 79 umole/kg of tetrabenazine, in 50% of the mice.
as §3, §2

[7] = test system: catalepsy induced by Haloperidol / tetrabenazine; test: Comparison of anti-haloperidol (Test 2) and anti-tetrabenazine (Test 4) activity; type: in vivo, mice; conditions: ED Test 2 (haloperidol) : ED Test 4 (tetrabenazine)
Procedure: as §5, §4, §3
On comparing the dopaminerg type anti-haloperidol test and the anti-tetrabenazine activity being characteristic of the antidepressive effect the following can be stated:
The quotient of the ED values of Columns 2 and 4 is the highest for Compound I (55:13=4.2). […] The said quotient is high in the case of Nomifensine (1.6), Compound D (1.8), Compound E (2.7) and Compound F (1.7).

prolactine level = test: Test 10: decrease of prolactine level in ovariectomised rats; type: in vivo; conditions: Rattus norvegicus, 96 h, after 4 days treatment with oestradiol 0.073 umole/kg, read-out: Dose which induces a significant decrease of the prolactine level (Test 10)
Procedure: 10. The dose which induces a significant decrease of the prolactine level after 4 days treatment with a dose of 0.073 umole/kg of oeastradiol, on three weeks earlier ovariectomised rats.
as §1, §2

[8] = read-out: ED, lowest i.p. dose which still decreases the spontaneous motility (Test 3, -)

| Structure (SMILES) | minimal effective dose [1] [µmol/kg] | LD50 at 96 h [2] [µmol/kg] | TI (Test 4), LD/ED quotient [3] | ED50 [3] [µmol/kg] | TI (Test 6), LD/ED quotient [4] | minimal effective dose [4] [µmol/kg] | TI (Test 2), LD/ED quotient [5] | ED50 [5] [µmol/kg] | TI (Test 3), LD/ED quotient (spontaneous motility) | minimal effective dose (spontaneous motility; [8]) [µmol/kg] | minimal effective dose (stereotypy) [µmol/kg] | TI (Test 5), LD/ED quotient [6] | ED50 [6] [µmol/kg] | Quotient of the ED values of Columns 2 and 4 [7] | minimal effective dose (prolactine level) [µmol/kg] | Therapeutical index in the anti-reserpine test compared with Nomifensine (in words) ([4]; anti-reserpine test) | minimal effective dose (spontaneous motility; read-out: ED, lowest i.p. dose which still increases or decreases the spontaneous motility (Test 3, no sign)) [µmol/kg] | Effect on spontaneous motility (in words) (spontaneous motility; mice) |
| --- | --- | --- | --- | --- | --- | --- | --- | --- | --- | --- | --- | --- | --- | --- | --- | --- | --- | --- |
| CN1Cc2c(NC(=O)CN3CCCC3)cccc2C(c2ccccc2)C1 (stereo not drawn) [Compound A, 4-phenyl-2-methyl-8-pyrrolidino-acetylamino-1,2,3,4-tetrahydro-isoquinoline-dimaleate] | 5.2 | 653 | 11 | 62 | 8 | 86 | 8 | 86 | 3 | 206 | 89 | 15 | 43 | 1,4 |  |  |  |  |
| CC(C)NCCC(=O)Nc1cccc2c1CN(C)CC2c1ccccc1 (stereo not drawn) [Compound B, 4-phenyl-8-[3'-isopropylamino-propionyl-amino]-2-methyl-1,2,3,4-tetrahydroisoquinoline-maleate] | 4.3 | 1920 | 6 | 321 | 5 | 428 | 5 | 428 | 6 | 342 | > 178 | 7 | 267 | 1,3 | 96 |  |  |  |
| CCCCNC(=O)Nc1cccc2c1CN(C)CC2c1ccc(C)cc1 (stereo not drawn) [Compound F, 2-methyl-8-n-butyl-carbamoyl-amino-4-p-tolyl-1,2,3,4-tetrahydro-isoquinoline-maleate] | > 11 | > 2570 | > 20 | 128 | > 30 | 86 | > 12 | > 214 | > 60 | 43 | 178 | > 80 | 32 | > 1,7 and 1.7 | 107 |  |  |  |
| CCCCNCC(=O)Nc1cccc2c1CN(C)CC2c1ccc(Cl)cc1 (stereo not drawn) [Compound D, 8-butyl-amino-acetyl-amino-4-p-chloro-phenyl-2-methyl-1,2,3,4-tetrahydro-isoquinoline-maleate] | 1 | 637 | 24 | 27 | 64 | 10 | 13 | 48 | < 16 |  | 64 | 82 | 7.8 | 1,8 | 36 | more favourable therapeutical index | > 40 |  |
| CN1Cc2c(N)cccc2C(c2ccccc2)C1 (stereo not drawn) [Nomifensine, 8-amino-4-phenyl-2-methyl-1,2,3,4-tetrahydro-isoquinoline, reference compound] | 1.4 | 1130 | 30 | 37 | 40 | 28 | 20 | 56 | 40 |  | 23 | 268 | 4.2 | 1,6 | 28 |  |  | increases the spontaneous motility |
